Results on two compounds are retold here after patent US20230097883A1, “ERGOTHIONEINE PET COMPOUNDS AND METHODS OF USE THEREOF” (VANDERBILT UNIVERSITY, priority 2021, published 2023).

“Also recorded” adds a separate entry of the source.

Series [1] relates to neuroblastoma SH-SY5Y cells. The series can be described thus: DCFH-DA ROS scavenging assay in SH-SY5Y cells. The class given is cell-based. From the text: We used a commercially available DCFH-DA (2′,7′-dichlorodihydrofluorescein diacetate) probe to assess the ROS scavenging power of ERGO in HeLa and neuroblastoma SH-SY5Y cells. Upon penetrating the cytoplasm, DCFH-DA is deacetylated by endogenous esterases to a non-fluorescent intermediate, followed by oxidation by free radicals. This generates a continuous and extended conjugation system, resulting in the production of highly fluorescent DCF (2′ 7′-dichlorofluorescein). In an aqueous condition, DCF has a maximal excitation and emission of 495 nm and 529 nm, respectively. Well-adhered HeLa or SH-SY5Y cells previously incubated with DCFH-DA were exposed to a commercial ROS initializer and ERGO concentrations ranging from 0-100 mM. […] Each point in the assay was measured in pentaplicate, p<0.0001.
On day 1, HeLa cells or SH-SY5Y cells were seeded into a 96-well plate with a density of 10,000 cells/mL. […] Immediately afterwards, fluorescence measurement began using a microplate reader (Biotek Industries, Agilent Technologies, Winooski, Vt., USA) with an excitation and emission wavelength of 485 nm and 528 nm, respectively. Each ERGO concentration was measured in pentaplicate.

The nature of series [2]: Cupric ion chelating (CIC) assay. Conditions: increasing ERGO concentrations. The class given is biochemical. From the text:
We also assessed ERGO's transition metal scavenging using cupric ion chelating (CIC) and ferrous ion chelating (FIC) assays. In these experiments, pyrocatechol violet or ferrozine forms a complex with free Cu(II) or Fe(II), respectively, resulting in a chromophore with a strong absorbance signal. The pyrocatechol violet-COI) complex has an absorbance lambda max (λmax) at 630 nm, and ferrozine-Fe(II) has a λmax at 562 nm. In the presence of ERGO, fewer free metals are available to form these complexes, resulting in less absorbance.
The copper chelating activity of ERGO was determined using a CIC assay (Zen-Bio Inc., Durham, N.C.). Assays contained triplicated samples, standards, background, and max absorbance wells. All the assay absorbance values were subtracted from the average background absorbance, comprising of water and assay buffer (1:1). Maximal absorbance was measured by averaging the absorbance values of 3 wells containing only CuSO4 and assay buffer. […] The plate was then read at 632 nm using a Biotek Synergy 4 plate reader. Absorbances were averaged, and the background absorbance was subtracted from the sample and maximum averages (Abstest and Absmax). Cupric ion chelating percentage was then calculated using the following equation: Cupric ion chelating (%)=100×(Absmax−Abstest)/Absmax.

A further series deals with GFAP-positive astrocytes. The series can be described thus: GFAP immunohistochemistry of brain sections after ERGO treatment. The class given is in vivo, mouse. Conditions: ERGO-treated versus non-treated 5XFAD mice. As to the method:
(§1) In this study, after the PET imaging, animals (non-treated 5XFAD (n=3) and ERGO-treated 5XFAD mice (n=5)) were perfused, and the brain sections were stained with antibodies against GFAP and IBA1 for neuroinflammatory markers astrocytes and microglia, respectively.
Brains embedded in OCT were cut into sagittal sections (10 μm) using a Tissue-Tek cryostat and mounted onto charged glass slides. Prior to staining, slides were washed with PBS (10 min); then, they were treated with blocking buffer (5% normal goat serum, 0.2% Triton X-100, 0.5% bovine albumin in PBS) for 1 h at room temperature. The treated sections were then incubated overnight at 4° C. with primary anti-GFAP antibody (1:100 dilution, Biolegend San Diego, Calif., USA). Slides were washed with PBS (3×) for 10 min each, the sections were subsequently incubated with secondary antibody goat anti-mouse Alexa Fluor 488 (1:200 dilution, Thermo Fisher Scientific, Carlsbad, Calif., USA) for 30 min at room temperature. The sections were then washed with PBS twice for 10 min and once for 30 min, and coverslipped with an antifade mounting medium (Vector Laboratories, Burlingame, Calif.) before observation under a fluorescence microscope.
Quantitative analysis of the PET imaging and IHC data was performed using imageJ software. […]

A further series concerns IBA1-positive microglia. Kind of series: IBA1 immunohistochemistry of brain sections after ERGO treatment. In kind it is in vivo, mouse. The note with it: ERGO-treated versus non-treated 5XFAD mice. The protocol: as §1
Quantitative analysis of the PET imaging and IHC data was performed using imageJ software. The data was imported to GraphPad Prism version 9 for Mac (GraphPad Software, San Diego, Calif., USA) for statistical analysis. Differences between groups were tested using unpaired t-test.

A short description of series [3]: Ex-vivo cut-and-count whole-body biodistribution of I.V.-injected [11C]ERGO in WT mice. Set-up: species or system mouse. Conditions: for brain concentration: after cardiac perfusion. The protocol: At 5 or 10 min post injection, anesthetized mice were laid on the shallow tray filled with crushed ice and the thoracic cavity was accessed using a scalpel after making […] mid-line incision from the abdominal area. After careful separation of the liver from the diaphragm, the thoracic opening was stabilized with a retractor. Perfusion was performed as we described in the past. Following removal of air bubbles, approximately 30 mL (pH7.4) of ice-cold PBS buffer is slowly injected in the left ventricle toward the ascending aorta using a 25-G syringe while the right atrium was snipped off using a curved point squeeze snip scissors to facilitate drainage of the systemic venous return. Then, 30 mL of 4% paraformaldehyde (PFA, pH 7.4) was perfused. When completed, tissues were harvested and weighed before counting using the automatic gamma counter (Hidex).
Cohorts of WT mice were injected with [^11C]ERGO probe, followed by cardiac perfusion 5 (n=5), 10 (n=5) and 30 (n=6) minutes after injection before tissues were collected for activity counting.

The mark [4] stands for this setting: about 30 minutes after injection.
The mark [5] stands for this setting: initial value (5 minutes post I.V. injection).

For `C[N+](C)(C)[C@@H](Cc1c[nH]c(=S)[nH]1)C(=O)[O-]` [ERGO, L-ergothioneine], the “DCF fluorescence signal (ROS)” value in series [1] (ERGO 100 mM) is given as “nearly negligible; also recorded: quenches the fluorescence totally”; in series [1] (ERGO starting from 5 mM), “attenuates the fluorescence significantly”. In addition, the “absorbance signal of pyrocatechol violet-Cu(II) complex” value in series [2] is given as “decreased as the concentrations of ERGO increased in a dose-dependent fashion”. Besides, in the series with GFAP-positive astrocytes, the “reduction of GFAP-positive astrocytes in the hippocampus” value was about 50%. In addition, in the series on IBA1-positive microglia, the “reduction of IBA1-positive microglia” value is listed as about 80%.
For `C[N+](C)([11CH3])[C@@H](Cc1c[nH]c(=S)[nH]1)C(=O)[O-]` [[^11C]ERGO], in series [3] (setting [4]), the blood concentration was found to be 0.33 % ID/g, the eyes concentration is on record as 0.52 % ID/g, the heart concentration came to 0.51 % ID/g and the kidneys concentration is reported as 4.2 % ID/g. In addition, in series [3] (setting [4]), the liver concentration is listed as 2.86 % ID/g, the small intestine concentration came out at 0.64 % ID/g, the spleen concentration worked out at 0.97 % ID/g and the brain concentration came out at 0.35 % ID/g. In series [3] (setting [5]), this compound displayed a blood concentration of 0.39 % ID/g, an eyes concentration of 0.11 % ID/g, a heart concentration of 0.13 % ID/g and a kidneys concentration of 1.33 % ID/g. In series [3] (setting [5]), this compound came in with a liver concentration of 0.61 % ID/g, a small intestine concentration of 0.2 % ID/g, a spleen concentration of 0.2 % ID/g and a brain concentration of 0.13 % ID/g.
